Test results from patent US11524966B1 (Valo Early Discovery, Inc., priority 2017, dated 2022).

Biological target: T1, USP25 (USP25-His6, Boston Biochem E-546) (Homo sapiens, UniProt Q9UHP3)
T1 construct: His6; purchased Boston Biochem E-546
T1 sequence (Q9UHP3 1-1055): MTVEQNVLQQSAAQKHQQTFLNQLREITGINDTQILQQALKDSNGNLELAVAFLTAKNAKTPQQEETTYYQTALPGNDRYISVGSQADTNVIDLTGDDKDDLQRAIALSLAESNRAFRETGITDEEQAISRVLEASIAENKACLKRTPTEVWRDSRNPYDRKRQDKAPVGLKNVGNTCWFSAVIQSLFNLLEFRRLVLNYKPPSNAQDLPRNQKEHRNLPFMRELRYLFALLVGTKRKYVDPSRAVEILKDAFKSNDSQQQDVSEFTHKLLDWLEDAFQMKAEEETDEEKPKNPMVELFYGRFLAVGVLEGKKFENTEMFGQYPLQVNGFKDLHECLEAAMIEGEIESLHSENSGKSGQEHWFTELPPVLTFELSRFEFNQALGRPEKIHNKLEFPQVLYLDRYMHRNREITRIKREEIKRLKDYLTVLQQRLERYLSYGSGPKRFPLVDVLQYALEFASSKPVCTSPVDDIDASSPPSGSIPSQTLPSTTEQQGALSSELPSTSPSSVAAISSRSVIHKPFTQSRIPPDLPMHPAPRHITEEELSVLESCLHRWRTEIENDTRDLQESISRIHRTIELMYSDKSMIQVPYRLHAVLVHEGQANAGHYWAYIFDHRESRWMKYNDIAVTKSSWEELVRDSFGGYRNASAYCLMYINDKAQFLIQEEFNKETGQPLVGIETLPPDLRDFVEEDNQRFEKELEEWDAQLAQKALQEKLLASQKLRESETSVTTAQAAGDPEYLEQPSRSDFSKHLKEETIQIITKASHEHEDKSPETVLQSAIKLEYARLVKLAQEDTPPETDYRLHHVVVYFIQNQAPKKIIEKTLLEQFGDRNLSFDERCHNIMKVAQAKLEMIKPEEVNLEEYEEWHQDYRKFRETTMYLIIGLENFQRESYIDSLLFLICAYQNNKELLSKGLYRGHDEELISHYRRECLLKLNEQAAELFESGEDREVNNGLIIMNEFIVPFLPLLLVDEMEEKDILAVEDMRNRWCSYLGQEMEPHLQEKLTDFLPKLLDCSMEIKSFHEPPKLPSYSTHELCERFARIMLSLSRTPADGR
Assay: Ubiquitin-Rhodamine 110 Assay for USP25 Activity, Example A-2
Assay type: biochemical
Settings: Ubiquitin-Rhodamine 110 assay, Example A-2; read-out: USP25 A-2 IC50 range
In short: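 USP25-His6 (75 pM) was preincubated with compound (10-point, 3-fold series, 25 μM to 1.3 nM) for 30 min in 20 mM Tris-HCl pH 8.0, 3 mM BME, 0.03% BGG, 0.01% Triton X-100. Ub-Rh110 (25 nM, <<Km) was then added for 45 min at room temperature, citric acid-stopped, and fluorescence read at 485/535 nm.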

Compound | IC50
Cc1ccc2c(N)c(C(=O)N[C@H]3COc4cc(N5C[C@@H](N)[C@H](OC(F)(F)F)C5)ccc4C3)sc2n1 (single isomer, unassigned) [Example 3-9] | 200 to 2000 nM
Cc1ccc2c(N)c(C(=O)N[C@H]3COc4cc(N5C[C@H](OC(F)(F)F)[C@@H](N)C5)ccc4C3)sc2n1 (single isomer, unassigned) [Example 3-10] | 200 to 2000 nM
Cc1ccc2c(N)c(C(=O)N[C@H]3COc4c(cc(F)c(N5CCNCC5)c4F)C3)sc2n1 (single isomer, unassigned) [Example 3-17] | 50 to 200 nM
Cc1ccc2c(N)c(C(=O)N[C@@H]3COc4c(cc(F)c(N5CCNCC5)c4F)C3)sc2n1 (single isomer, unassigned) [Example 3-18] | > 2000 nM
Cc1ccc2c(N)c(C(=O)N[C@H]3COc4cc(N5C[C@H](N)CC56COC6)ccc4C3)sc2n1 (single isomer, unassigned) [Example 351] | 1 to 50 nM
Cc1ccc2c(N)c(C(=O)N[C@H]3COc4cc(N5C[C@@H](N)CC56COC6)ccc4C3)sc2n1 (single isomer, unassigned) [Example 352] | 50 to 200 nM
O=C(N[C@H]1CCc2c(c(F)cc(N3CC4CCC(C3)N4)c2C(F)F)C1)c1cnc2c(c1)[C@@H]1C[C@@H]1CN2 (single isomer, unassigned) [Example 359] | > 2000 nM
O=C(N[C@H]1CCc2c(c(F)cc(N3CC4CCC(C3)N4)c2C(F)F)C1)c1cnc2c(c1)[C@H]1C[C@H]1CN2 (single isomer, unassigned) [Example 360] | 200 to 2000 nM
O=C(N[C@@H]1CCc2c(c(F)cc(N3CC4CCC(C3)N4)c2C(F)F)C1)c1cnc2c(c1)[C@@H]1C[C@@H]1CN2 (single isomer, unassigned) [Example 361] | > 2000 nM
O=C(N[C@@H]1CCc2c(c(F)cc(N3CC4CCC(C3)N4)c2C(F)F)C1)c1cnc2c(c1)[C@H]1C[C@H]1CN2 (single isomer, unassigned) [Example 362] | 200 to 2000 nM
Cc1ccc2c(N)c(C(=O)N[C@H]3COc4cc(N5C[C@H](N)[C@@H](F)C5)ccc4C3)sc2n1 [Example 3-7, 3-amino-N-((R)-7-((3S,4S)-3-amino-4-fluoropyrrolidin-1-yl)chroman-3-yl)-6-methylthieno[2,3-b]pyridine-2-carboxamide] | 200 to 2000 nM
Cc1ccc2c(N)c(C(=O)N[C@H]3COc4cc(N5C[C@@H](N)[C@H](F)C5)ccc4C3)sc2n1 [Example 3-8, 3-amino-N-((R)-7-((3R,4R)-3-amino-4-fluoropyrrolidin-1-yl)chroman-3-yl)-6-methylthieno[2,3-b]pyridine-2-carboxamide] | 200 to 2000 nM
Cc1ccc2c(N)c(C(=O)N[C@H]3COc4cc(N5CCN[C@@H](C(F)(F)F)C5)ccc4C3)sc2n1 [Example 3-11, 3-amino-6-methyl-N-((R)-7-((R)-3-(trifluoromethyl)piperazin-1-yl)chroman-3-yl)thieno[2,3-b]pyridine-2-carboxamide] | 200 to 2000 nM
Cc1ccc2c(N)c(C(=O)N[C@H]3COc4cc(N5CCN[C@H](C(F)(F)F)C5)ccc4C3)sc2n1 [Example 3-12, 3-amino-6-methyl-N-((R)-7-((S)-3-(trifluoromethyl)piperazin-1-yl)chroman-3-yl)thieno[2,3-b]pyridine-2-carboxamide] | 200 to 2000 nM
Cc1ccc2c(N)c(C(=O)N[C@H]3COc4cc(N5CC[C@]6(CCCNC6)C5)ccc4C3)sc2n1 [Example 3-13, N-((R)-7-((S)-2,7-diazaspiro[4.5]decan-2-yl)chroman-3-yl)-3-amino-6-methylthieno[2,3-b]pyridine-2-carboxamide] | 200 to 2000 nM
Cc1ccc2c(N)c(C(=O)N[C@H]3COc4cc(N5CC[C@@]6(CCCNC6)C5)ccc4C3)sc2n1 [Example 3-14, N-((R)-7-((R)-2,7-diazaspiro[4.5]decan-2-yl)chroman-3-yl)-3-amino-6-methylthieno[2,3-b]pyridine-2-carboxamide] | 50 to 200 nM
O=C(N[C@H]1COc2cc(N3CC4CCC(C3)N4)ccc2C1)c1cnc2c(c1)[C@@H]1C[C@@H]1CN2 [Example 3-15, (1aS,7bR)-N-((3R)-7-(3,8-diazabicyclo[3.2.l]octan-3-yl)chroman-3-yl)-1a,2,3,7b-tetrahydro-1H-cyclopropa[c][1,8]naphthyridine-6-carboxamide] | 50 to 200 nM
O=C(N[C@H]1COc2cc(N3CC4CCC(C3)N4)ccc2C1)c1cnc2c(c1)[C@H]1C[C@H]1CN2 [Example 3-16, (1aR,7bS)-N-((3R)-7-(3,8-diazabicyclo[3.2.1]octan-3-yl)chroman-3-yl)-1a,2,3,7b-tetrahydro-1H-cyclopropa[c][1,8]naphthyridine-6-carboxamide] | > 2000 nM
Cc1ccc2c(N)c(C(=O)N[C@H]3COc4cc(N5CCC(F)(F)CC5)ccc4C3)sc2n1 [Example 5-1, (R)-3-amino-N-(7-(4,4-difluoropiperidin-1-yl)chroman-3-yl)-6-methylthieno[2,3-b]pyridine-2-carboxamide] | 50 to 200 nM
Cc1ccc2c(N)c(C(=O)N[C@H]3COc4cc(N5CCS(=O)(=O)CC5)ccc4C3)sc2n1 [Example 5-2, (R)-3-amino-N-(7-(1,1-dioxidothiomorpholino)chroman-3-yl)-6-methylthieno[2,3-b]pyridine-2-carboxamide] | 50 to 200 nM
Cc1ccc2c(N)c(C(=O)N[C@H]3COc4cc(N5CC(O)(C(F)(F)F)C5)ccc4C3)sc2n1 [Example 5-3, (R)-3-amino-N-(7-(3-hydroxy-3-(trifluoromethyl)azetidin-1-yl)chroman-3-yl)-6-methylthieno[2,3-b]pyridine-2-carboxamide] | 200 to 2000 nM
Cc1ccc2c(N)c(C(=O)N[C@H]3COc4cc(N5CC6COCC(C5)C6(F)F)ccc4C3)sc2n1 [Example 5-4, 3-amino-N-((3R)-7-(9,9-difluoro-3-oxa-7-azabicyclo[3.3.1]nonan-7-yl)chroman-3-yl)-6-methylthieno[2,3-b]pyridine-2-carboxamide] | 50 to 200 nM
Cc1ccc2c(N)c(C(=O)N[C@H]3COc4cc(N5CCC(C(=O)O)CC5)ccc4C3)sc2n1 [Example 6-1, (R)-1-(3-(3-Amino-6-methylthieno[2,3-b]pyridine-2-carboxamido)chroman-7-yl)piperidine-4-carboxylic Acid] | > 2000 nM
Cc1ccc2c(N)c(C(=O)N[C@H]3COc4cc(N5CC[C@@H](C(=O)O)C5)ccc4C3)sc2n1 [Example 6-2, (R)-1-((R)-3-(3-amino-6-methylthieno[2,3-b]pyridine-2-carboxamido)chroman-7-yl)pyrrolidine-3-carboxylic acid] | > 2000 nM
Cc1ccc2c(N)c(C(=O)N[C@H]3COc4cc(N5CC[C@H](C(=O)O)C5)ccc4C3)sc2n1 [Example 6-3, (S)-1-((R)-3-(3-amino-6-methylthieno[2,3-b]pyridine-2-carboxamido)chroman-7-yl)pyrrolidine-3-carboxylic acid] | > 2000 nM
Cc1cnc2c(N)c(C(=O)N[C@H]3CCc4cc(N5CC(C(=O)O)C5)ccc4C3)sc2n1 [Example 6-4, (S)-1-(6-(7-amino-3-methylthieno[2,3-b]pyrazine-6-carboxamido)-5,6,7,8-tetrahydronaphthalen-2-yl)azetidine-3-carboxylic acid] | > 2000 nM
Cc1ccc2c(N)c(C(=O)N[C@H]3COc4cc(N5CCC(O)CC5)ccc4C3)sc2n1 [Example 7-1, (R)-3-amino-N-(7-(4-hydroxypiperidin-1-yl)chroman-3-yl)-6-methylthieno[2,3-b]pyridine-2-carboxamide] | 200 to 2000 nM
Cc1ccc2c(N)c(C(=O)N[C@H]3COc4cc(N5CCC[C@](C)(O)C5)ccc4C3)sc2n1 [Example 7-2] | 200 to 2000 nM
Cc1ccc2c(N)c(C(=O)N[C@H]3COc4cc(N5CCC[C@@](C)(O)C5)ccc4C3)sc2n1 [Example 7-3, 3-amino-N-((R)-7-((R)-3-hydroxy-3-methylpiperidin-l-yl)chroman-3-yl)-6-methylthieno[2,3-b]pyridine-2-carboxamide] | 200 to 2000 nM
Cc1ccc2c(N)c(C(=O)N[C@H]3CCc4nc(N5C[C@H](N)[C@H](C(F)F)C5)ccc4C3)sc2n1 [Example 345, 3-amino-N-[(6S)-2-[(3R,4R)-3-amino-4-(difluoromethyl)pyrrolidin-1-yl]-5,6,7,8-tetrahydroquinolin-6-yl]-6-methylthieno[2,3-b]pyridine-2-carboxamide] | 200 to 2000 nM
